The values below are quoted from earlier work in patent US9320295B2, “Compositions containing non-polar compounds” (Virun, Inc., priority 2010, dated 2016).

Take sucrose dipalmitate: the HLB value is 7.4.

On to sucrose distearate, for which the HLB value was 3.

sucrose monopalmitate: the HLB value is given as greater than 10.
